The experiment has as its target Large T antigen (Simian virus 40) (UniProt P03070). As to the kind of experiment: SV40 large T antigen inhibitors, biochemical (AID 1903). Particulars: SV40 large T antigen ATPase/helicase inhibition assay.
Large T antigen (Simian virus 40), sequence (P03070 whole entry, looked up): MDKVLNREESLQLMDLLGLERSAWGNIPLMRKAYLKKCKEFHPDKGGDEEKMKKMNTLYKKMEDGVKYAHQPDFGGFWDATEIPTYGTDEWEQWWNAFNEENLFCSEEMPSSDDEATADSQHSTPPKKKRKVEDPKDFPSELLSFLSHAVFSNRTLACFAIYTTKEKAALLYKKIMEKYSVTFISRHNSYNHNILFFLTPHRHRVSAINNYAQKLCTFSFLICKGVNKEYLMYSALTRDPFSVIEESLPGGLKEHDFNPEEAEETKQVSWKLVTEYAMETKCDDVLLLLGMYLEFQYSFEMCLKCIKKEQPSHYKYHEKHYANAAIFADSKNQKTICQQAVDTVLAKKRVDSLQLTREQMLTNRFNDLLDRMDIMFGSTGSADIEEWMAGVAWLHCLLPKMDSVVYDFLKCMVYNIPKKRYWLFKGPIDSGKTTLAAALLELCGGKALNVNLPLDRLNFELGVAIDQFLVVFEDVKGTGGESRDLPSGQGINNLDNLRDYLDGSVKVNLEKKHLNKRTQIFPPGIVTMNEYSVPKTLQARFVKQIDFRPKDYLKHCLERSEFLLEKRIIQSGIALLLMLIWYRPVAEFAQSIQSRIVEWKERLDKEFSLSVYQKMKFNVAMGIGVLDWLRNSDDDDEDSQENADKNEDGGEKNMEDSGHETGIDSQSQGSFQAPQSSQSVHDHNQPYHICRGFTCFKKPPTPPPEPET
With `C[c-]1[c-](C)[c-](C)[c-](C)[c-]1C.[Fe].c1cc2nccc(N3CCCC3)[c-]2c1` (centres undefined), the IC50 is 17.6 µM.

Take `CCCCC1(C)OC(=O)C(=Cc2ccc(-c3ccc(Cl)c(C(=O)O)c3)o2)C(=O)O1` (centres undefined): the IC50 was 17.2 µM.

For `C#CCOCCOCCOCCNc1nc(N2CCN(C(=O)CCCCCCCCCCNC(=O)[C@H]([C@@H](C)CC)n3cc(CCCCN=C(N)N)nn3)CC2)nc(N2CCN(C(=O)CCCCCCCCCCNC(=O)[C@H](CCCN=C(N)N)n3cc(C[C@@H](C)CC)nn3)CC2)n1`, the IC50 is 10.3 µM.

Turning to `O=C(O)CCC1c2cc3c4cc2OC2Oc5cc6c(cc51)C(CCC(=O)O)c1cc5c7cc1OC(O6)c1cc6cc(c1)Oc1cc(cc(C(=O)O)c1)Oc1cc8cc(c1)C(Oc1cc(c(cc1C5CCC(=O)O)C3CCC(=O)O)OC(O4)c1cc(cc(c1)Oc1cc(cc(C(=O)O)c1)O8)Oc1cc(cc(C(=O)O)c1)Oc1cc(cc2c1)Oc1cc(cc(C(=O)O)c1)O6)O7` (centres undefined), the IC50 is < 0.39 µM.

Regarding `C#CCOCCOCCOCCNc1nc(N2CCN(C(=O)CCCCCCCCCCNC(=O)[C@H]([C@@H](C)CC)n3cc(CCCCN=C(N)N)nn3)CC2)nc(N2CCN(C(=O)CCCCCCCCCCNC(=O)[C@H](CCCCN)n3cc(C[C@@H](C)CC)nn3)CC2)n1`, the IC50 is 13.1 µM.

Turning to `C#CCOCCOCCOCCNc1nc(N2CCN(C(=O)CCCCCCCCCCNC(=O)[C@H]([C@@H](C)CC)n3cc(CCCCN=C(N)N)nn3)CC2)nc(N2CCN(C(=O)CCCCCCCCCCNC(=O)[C@H]([C@@H](C)CC)n3cc(CCCCN=C(N)N)nn3)CC2)n1`, the IC50 was 5.17 µM.

For the compound `O=C(O)c1cc[c]([Hg][Cl])cc1`, the IC50 is 1.27 µM.

`C[CH2][Hg][S]c1ccccc1C(=O)O`: the IC50 is 32.7 µM.

For the compound `C#CCOCCOCCOCCNc1nc(N2CCN(C(=O)CCCCCCCCCCNC(=O)[C@H](CCCN=C(N)N)n3cc(C[C@@H](C)CC)nn3)CC2)nc(N2CCN(C(=O)CCCCCCCCCCNC(=O)[C@@H]([C@H](C)CC)n3cc(CCCCCN)nn3)CC2)n1`, the IC50 was 18.6 µM.

The term IC50 denotes the concentration at which inhibition is half-maximal.

(Values after PubChem BioAssay AID1903 (Southern Research Specialized Biocontainment Screening …, 2009).)
